In patent publication US20260028353 one finds ring closure, isolated yield and ring closure, yield after HPLC data, which are given here for 14 compounds.

For series [1] the following is noted: 2 steps.

Where two headings read alike, the source gives them in different places.

In the case of `CCOC(=O)[C@@H]1Cc2nc(Br)sc2CCCC(=O)N(C)[C@@H](C(C)C)C(=O)N1`, under “from CCOC(=O)[C@@H](N)Cc1nc(Br)sc1CCCC(=O)N(C)[C@H](C(=O)O)C(C)C, amide bond, 12-membered ring, HATU/DIEA, DMF, 209.0 mM, 0.0 °C, 3 steps”, the ring closure, isolated yield was 28%. As for `COC(=O)[C@@H]1CCCN(C(=O)[C@@H]2Cc3cc(Br)cc(c3)CN(c3ccccc3)CCO[C@@H](C(C)C)C(=O)N2)N1`, the ring closure, isolated yield (from COC(=O)[C@@H]1CCCN(C(=O)[C@@H](N)Cc2cc(Br)cc(CN(CCO[C@H](C(=O)O)C(C)C)c3ccccc3)c2)N1, amide bond, 13-membered ring, EDCI/HOBt/DIEA, DCM, 107.0 mM, 25.0 °C, 2 steps) amounted to 34%. `COC(=O)[C@@H]1CCCN(C(=O)[C@H]2NC(=O)[C@H](C(C)C)N3CCC[C@@H]3COc3ccccc3CN(C)[C@@H]2c2nc(Br)cs2)N1` displayed a ring closure, isolated yield (from COC(=O)[C@@H]1CCCN(C(=O)[C@@H](N)[C@@H](c2nc(Br)cs2)N(C)Cc2ccccc2OC[C@H]2CCCN2[C@H](C(=O)O)C(C)C)N1, amide bond, 13-membered ring, HATU/DIEA, DMF, 12.4 mM, 20.0 °C, 2 steps) of 55%. `COC(=O)[C@@H]1Cc2cc(cc(Cl)n2)C=CCOC[C@@H](C(C)C)C(=O)N1` showed a ring closure, isolated yield (from C=CCOC[C@H](C(=O)N[C@@H](Cc1cc(C=C)cc(Br)n1)C(=O)OC)C(C)C, rcm bond, 13-membered ring, Grubbs II (0.1 eq), DCM, 2.28 mM, 40.0 °C) of 81%. Turning to “(9S,15S,18R)-3-(5-(4-cyclopropylpiperazin-1-yl)-2-((S)-1-methoxyethyl)pyridin-3-yl)-2-ethyl-18-isopropyl-5,5-dimethyl-21-phenyl-2,4,5,6,9,10,11,12,15,16,19,22-dodecahydro-8H,14H-9,13-epimino-1,29-etheno-15,26-methano-24,28-(metheno)pyrrolo[3,4-u][1,17]dioxa[4,8,11]triazacyclononacosine-8,14,17(18H)-trione”, the ring closure, isolated yield (other bond, 13-membered ring, 2 steps) was found to be 62%.

“(9S,15S,18R,21R)-3-(5-(4-cyclopropylpiperazin-1-yl)-2-((S)-1-methoxyethyl)pyridin-3-yl)-21-(2,6-dichloropyridin-4-yl)-2-ethyl-18-isopropyl-5,5-dimethyl-2,4,5,6,9,10,11,12,15,16,18,19,22,23-tetradecahydro-8H,21H-9,13-epimino-1,29-etheno-15,26-methano-24,28-(metheno)pyrrolo[3,4-l][1,17]dioxa[4,23,26]triazacyclononacosine-8,14,17-trione”: the ring closure, isolated yield (amide bond, 13-membered ring, EDCI/HOBt/DIEA, DCM, 2 steps) was determined as 66%.

Under “amide bond, 13-membered ring, 2 steps”, “(9S,15S,18R,22S)-2-ethyl-18-isopropyl-3-(2-((S)-1-methoxyethyl)-5-(4-methylpiperazin-1-y)pyridin-3-yl)-5,5-dimethyl-22-phenyl-2,4,5,6,9,10,11,12,15,16,18,19,22,23-tetradecahydro-8H,21H-9,13-epimino-1,29-etheno-15,26-methano-24,28-(metheno)pyrrolo[3,4-l][1,17]dioxa[4,23,26]triazacyclononacosine-8,14,17-trione” yielded a ring closure, isolated yield of 6.4%. In series [1] (ester bond, 18-membered ring), “(9S,15S,18S)-3-(5-(4-cyclopropylpiperazin-1-yl)-2-((S)-1-methoxyethyl)pyridin-3-yl)-2-ethyl-18-isopropyl-5,5-dimethyl-22-phenyl-2,4,5,6,9,10,11,12,15,16,20,21,22,23-tetradecahydro-8H,14H-9,13-epimino-1,29-etheno-15,26-methano-24,28-(metheno)pyrrolo[3,4-q][1,13]dioxa[4,7,27]triazacyclononacosine-8,14,17(18H)-trione” registered a ring closure, yield after HPLC of 23%. Under “amide bond, 15-membered ring, 2 steps”, “(9S,15S,18S)-25-benzyl-2-ethyl-18-isopropyl-3-(2-((S)-1-methoxyethyl)pyridin-3-yl)-5,5,19-trimethyl-2,4,5,6,9,10,11,12,15,16,18,19,22,23,24,25-hexadecahydro-8H-9,13-epimino-1,31-etheno-15,28-methano-26,30-(metheno)pyrrolo[3,4-a1][1]oxa[7,10,13,19]tetraazacyclohentriacontine-8,14,17,20(21H)-tetraone” gave a ring closure, isolated yield of 95%.

The compound “(9S,15S,18S,20aS,21aR)-2-ethyl-18-isopropyl-3-(2-((S)-1-methoxyethyl)pyridin-3-yl)-5,5,19-trimethyl-2,4,5,6,9,10,11,12,15,16,18,19,21,21a,22,23-hexadecahydro-8H-9,13-epimino-1,29-etheno-15,26-methano-24,28-(metheno)cyclopropa[o]pyrrolo[3,4-z][1]oxa[7,10,13,18]tetraazacyclotriacontine-8,14,17,20(20aH)-tetraone” returned a ring closure, yield after HPLC in series [1] (amide bond, 14-membered ring) of 1.5%. Under “rcm bond, 14-membered ring, Grubbs II (0.5 eq), DCM, 12.0 mM, 40.0 °C”, “(9S,15S,18S,20aS,21aS,E)-2-ethyl-18-isopropyl-3-(2-((S)-1-methoxyethyl)pyridin-3-yl)-5,5,19-trimethyl-2,4,5,6,9,10,11,12,15,16,18,19,21,21a-tetradecahydro-8H-9,13-epimino-1,29-etheno-15,26-methano-24,28-(metheno)cyclopropa[o]pyrrolo[3,4-z][1]oxa[7,10,13]triazacyclotriacontine-8,14,17,20(20aH)-tetraone” yielded a ring closure, isolated yield of 11%.

Regarding “(9S,15S,18S,Z)-2-ethyl-18-isopropyl-3-(2-((S)-1-methoxyethyl)pyridin-3-yl)-5,5,19-trimethyl-2,4,5,6,9,10,11,12,15,16,18,19,23,24-tetradecahydro-8H,14H-9,13-epimino-1,30-etheno-15,27-methano-25,29-(metheno)pyrrolo[3,4-z][1]oxa[7,10,13,18]tetraazacyclotriacontine-8,14,17,20-tetraone”, the ring closure, isolated yield (rcm bond, 14-membered ring, Grubbs II, DCM, 7.1 mM, 40.0 °C) worked out at 16%. Where the note is “ether bond, 13-membered ring”, “tert-butyl 4-((9S,15S,18S,21 S)-3-(5-(4-cyclopropylpiperazin-1-yl)-2-((S)-1-methoxyethyl)pyridin-3-yl)-2-ethyl-18-isopropyl-5,5-dimethyl-8,14,17-trioxo-2,4,5,6,9,10,11,12,15,16,17,18,21,22-tetradecahydro-8H,14H,20H-9,13-epimino-1,29-etheno-15,26-methano-24,28-(metheno)pyrrolo[3,4-q][1,13,26]trioxa[4,7]diazacyclononacosin-21-yl)piperazine-1-carboxylate” yielded a ring closure, isolated yield of 40%. As for “tert-butyl ((9S,15S,18S,22R)-2-ethyl-18-isopropyl-3-(2-((S)-1-methoxyethyl)pyridin-3-yl)-5,5,19-trimethyl-8,14,17,20-tetraoxo-2,4,5,6,9,10,11,12,15,16,17,18,19,20,21,22,23,24-octadecahydro-8H,14H-9,13-epimino-1,31-etheno-15,28-methano-26,30-(metheno)pyrrolo[3,4-a1][1,19]dioxa[7,10,13]triazacyclohentriacontin-22-yl)carbamate”, the ring closure, isolated yield (amide bond, 15-membered ring, 3 steps) is 27%.
